# According to patent publication US8470765B2, “Polypeptides and antibacterial or antiseptic use of same” (AnGes MG, Inc., priority 2009, dated 2013):
# Where two headings read alike, the source gives them in different places. No end group written: not given here.
# What was measured:
# [1] = system: Trichophyton rubrum NBRC9185
# [2] = system: Staphylococcus aureus ATCC29213; assay: microbe, parasite or virus in culture; assay type: cell-based; details: for MIC: Staphylococcus aureus, ATCC29213, read-out: MIC Staphylococcus aureus
# Method in brief: (§1)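 Visual MIC by microdilution in MHB; ~10^5 CFU/mL final; peptide solution prepared at 128 μg/mL; 37° C for 16–24 h or a strain-suited time.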
# [3] = system: Klebsiella pneumoniae JCM 1662; assay: microbe, parasite or virus in culture; assay type: cell-based; details: for MIC: Klebsiella pneumoniae, JCM1662
# Method in brief: as §1
# [4] = system: Escherichia coli ATCC 25922; assay: microbe, parasite or virus in culture; assay type: cell-based; details: for MIC: Escherichia coli, ATCC25922, read-out: MIC Escherichia coli
# Method in brief: as §1
# [5] = system: Enterobacter aerogenes JCM 1235; assay: microbe, parasite or virus in culture; assay type: cell-based; details: for MIC: Klebsiella aerogenes, JCM1235
# Method in brief: as §1
# [6] = system: Pseudomonas aeruginosa ATCC 27853; assay: microbe, parasite or virus in culture; assay type: cell-based; details: for MIC: Pseudomonas aeruginosa, ATCC27853, read-out: MIC Pseudomonas aeruginosa
# Method in brief: as §1
# [7] = system: Staphylococcus epidermidis JCM 2414; assay: microbe, parasite or virus in culture; assay type: cell-based; details: for MIC: Staphylococcus epidermidis, JCM2414, read-out: MIC Staphylococcus epidermidis
# Method in brief: as §1
# [8] = system: Acinetobacter baumanni JCM6841
# [9] = system: Enterobacter cloacae JCM 1232; assay type: cell-based
# Procedure: Bacteria (Escherichia coli ATCC 25922, Pseudomonas aeruginosa ATCC 27853, Staphylococcus aureus ATCC29213, Klebsiella pneumoniae JCM 1662, Enterobacter cloacae JCM 1232, Enterobacter aerogenes JCM 1235 and Staphylococcus epidermidis JCM 2414) were inoculated to Mueller-Hinton broth: MHB or LB medium, and cultured at a temperature and period suited for each strain. From the thus obtained colonies, each strain was inoculated to a fresh liquid medium and cultured for 16 to 20 hours. Then an aliquot having a volume (10 to 50 appropriate to each strain was inoculated to a fresh liquid medium and cultured for 4 to 6 hours, followed by the measurement of the absorbance at 600 nm. After comparing the turbidity with McFarland #0.5, the resultant was diluted with a medium. Each strain was added to about 10^5 CFU/mL (final concentration). Each of the peptide solutions to be tested was diluted with MHB to obtain a solution of 128 μg/mL. […] As controls, tobramycin (TOB: aminoglucoside antibiotic), oxacillin (OX:β-lactam antibiotic), meropenem (MEPM: carbapenem antibiotic) and ciprofloxacin (new quinolone antibiotic) were used. […] To a 96-well microtiter plate, 0.1 mL of the inoculation solution and 0.1 mL of the peptide- or positive control-containing medium having the respective concentration were added, and cultured at 37° C. for 16 to 24 hours (or a time period suited for the growth of the respective strain). The well not containing the sample was used as a negative control. After the culturing, the growth was visually observed, and the minimum concentration at which the growth was inhibited was defined as the minimum growth inhibition concentration (MIC). The medium used in this test for bacteria was Mueller-Hinton broth. Independent experiments were carried out twice or more for each strain.
# [10] = system: Escherichia coli ATCC 25922; assay: ATP Assay (viability at 3 hours), Table 6; assay type: cell-based; details: for Escherichia coli ATP (viability, relative value to negative control): 3 h, 5 μg/mL; for viability at 10 µg/mL: ATCC25922, 3 h, read-out: Escherichia coli ATP (viability, relative value to negative control)
# Method in brief: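 Log-phase bacteria at about 10^5 CFU/mL final in Mueller-Hinton broth were exposed 3 h at 37 °C to peptide (solution prepared at 10 μg/mL before 1:1 mixing with inoculum). ATP (BacTiter-Glo luminescence) relative to untreated wells defined viability; two independent experiments.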
# [11] = Table 4, two tests, first/second value where not identical
Compound,"MIC Trichophyton rubrum [1, 11]",MIC Staphylococcus aureus ([2]; ATCC29213) [µg/mL],MIC Escherichia coli ([4]; ATCC 25922) [µg/mL],"MIC Enterobacter aerogenes [5, 11]","MIC Pseudomonas aeruginosa [6, 11]",MIC Acinetobacter baumanni ([8]; JCM6841) [µg/mL],"MIC Enterobacter cloacae [9, 11]","Escherichia coli ATP (viability, relative value to negative control) [10]",MIC Trichophyton rubrum ([1]; NBRC9185) [µg/mL],MIC Klebsiella pneumoniae ([3]; JCM 1662) [µg/mL],MIC Pseudomonas aeruginosa ([6]; ATCC 27853) [µg/mL],MIC Candida krusei (Candida krusei NBRC1395; NBRC1395) [µg/mL],"MIC Staphylococcus epidermidis [7, 11]","MIC Escherichia coli [4, 11]",further results
IFLHRLKRMRKRLKRKLRLW-OH [SRP-7],64/32,32,32,16/64,8/16,128,16/128,1.6,,,,,,,"MIC Klebsiella pneumoniae [3, 11]: 16/64; MIC Staphylococcus epidermidis ([7]; JCM 2414): 8 µg/mL; MIC Candida krusei (Candida krusei NBRC1395; [11]): 64/32"
GRLKRMGERLKRKIQKWIRW-NH2 [SRP-15],,16,16,,,32,16/32,0.5,64,16,16,16,,,MIC Enterobacter aerogenes ([5]; JCM 1235): 16 µg/mL; MIC Staphylococcus epidermidis ([7]; JCM 2414): 8 µg/mL
LIFLHRLKRMRKRLKRKLRL-NH2 [SRP-12],,16,32,32/64,16/32,,128< mg/mL,6.5,,128,,,4/8,,
RLKRMRKRLKRKLRLWHRKRYK-NH2 [SRP-8],,16,,,,128,128< mg/mL,1.7,128,32,16,32,8/16,16/32,MIC Enterobacter aerogenes ([5]; JCM 1235): 64 µg/mL
KLIFLRELRRLRKRLKRKLR-NH2 [SRP-16],64/32,16,,16/32,,128,,0.9,,64,16,32,8/16,16/32,MIC Enterobacter cloacae ([9]; JCM 1232): 64 µg/mL
"C[C@@H](O)[C@H]1C(=O)N2C(C(=O)O)=C(S[C@@H]3CN[C@H](C(=O)N(C)C)C3)[C@H](C)[C@H]12 [meropenem, reference compound]",,,,,,,,,,,,,,,"MIC [2, 11]: 0.03 to 0.12 µg/mL; MIC [3, 11]: < 4000 µg/mL; MIC [4, 11]: 0.008 to 0.06 µg/mL; MIC [5, 11]: < 4000 µg/mL; MIC [6, 11]: 0.25 to 1 µg/mL; MIC [7, 11]: 0.03 to 0.12 µg/mL; viability at 10 µg/mL [10]: 15.3%"
GRLKRMGKRLKRKIQKWARW-NH2 [SRP-14],,16,16,16/32,,64,32/128,1.2,32,,16,32,8/16,,"MIC Klebsiella pneumoniae [3, 11]: 16/128"
"KNLRRIIRKIIHIIKKYG-NH2 [Ovispirin-1, reference compound]",,16,,16/32,16/32,,32/64,,64,,,16,8/16,8/16,"MIC Klebsiella pneumoniae [3, 11]: 8/16; MIC Acinetobacter baumanni [8, 11]: 4/8"
RLKRMRKRLKRKLRLW-NH2 [SRP-17],64/32,,,,32/64,128,128< mg/mL,0.4,,32,,32,4/8,16/32,"MIC Staphylococcus aureus [2, 11]: 16/32; MIC Enterobacter aerogenes ([5]; JCM 1235): 128 µg/mL"
KLIFLHRLKRELRKRLKRKLR-NH2 [SRP-13],128/64,32,,16/64,,,32/64,2.2,,32,16,32,4/8,16/32,"MIC Acinetobacter baumanni [8, 11]: 16/32"
"NC[C@H]1O[C@H](O[C@H]2[C@H](O)[C@@H](O[C@H]3O[C@H](CO)[C@@H](O)[C@H](N)[C@H]3O)[C@H](N)C[C@@H]2N)[C@H](N)C[C@@H]1O [tobramycin, reference compound]",,,,,,,,,,,,,,,"MIC [2, 11]: 0.12 to 1 µg/mL; MIC [3, 11]: < 4000 µg/mL; MIC [4, 11]: 0.25 to 1 µg/mL; MIC [5, 11]: < 4000 µg/mL; MIC [6, 11]: 0.25 to 1 µg/mL; MIC [7, 11]: 0.12 to 1 µg/mL; viability at 10 µg/mL [10]: 74.3%"
